Experimental data: patent US11484607B2, “PSMA-targeted NIR dyes and their uses” (On Target Laboratories, LLC, priority 2015, dated 2022)

What was measured:
PSMA = biological target: T1, PSMA (Homo sapiens, UniProt Q04609); assay: Relative binding affinity of DUPA-NIR conjugates with respect to DUPA-FITC on 22Rv1 cells, flow cytometry; details: for affinity for PSMA (in words): in vitro binding affinity data; for Kd: conjugates with aromatic linkers, 1 h at 37° C., 100 nM DUPA-FITC
T1 construct: host or cells: 22Rv1 human prostate cancer cells
Experimental: (§1) FIG. 3—Relative binding affinities of DUPA-NIR conjugates 1-9 with respect to DUPA-FITC (14). PSMA-positive 22Rv1 human prostate cancer cells were incubated for 1 h at 37° C. in the presence of 100 nM DUPA-FITC with increasing concentrations of DUPA-NIR conjugates. […] Cell bound fluorescence was assayed as using flow cytometry.
as §1, with “6—Relative” for “3—Relative”, “with aromatic amino acids linkers” for “1-9”
as §1, with “3 Relative” for “3—Relative”
in vitro studies. […] PSMA-positive 22Rv1 human prostate cancer cells were incubated for 1 h at 37° C. in the presence of 100 nM DUPA-FITC with increasing concentrations of DUPA-NIR conjugates. […] Cell bound fluorescence was assayed as using flow cytometry.
PSMA-positive 22Rv1 human prostate cancer cells were incubated for 1 h at 37° C. in the presence of 100 nM DUPA-FITC with increasing concentrations of DUPA-NIR conjugates. […] Cell bound fluorescence was assayed as using flow cytometry.
as §1, with “24: Relative” for “3—Relative”, “conjugates” for “conjugates 1-9”
PSMA-positive 22Rv1 human prostate cancer cells were incubated for 1 h at 37° C. in the presence of 100 nM DUPA-FITC with increasing concentrations of DUPA-NIR conjugates. […] Cell bound fluorescence was assayed as using flow cytometry
Cancer cells were incubated for 1 h at 37° C. in the presence of 100 nM DUPA-FITC with increasing concentrations of compound 15. […] Cell bound fluorescence was assayed as using flow cytometry.

[1] = test system: human prostate tumor xenografts (22Rv1 cells); assay: Tissue biodistribution and tumor-to-tissue fluorescence ratio of DUPA-NIR conjugates, IVIS imaging; type: in vivo, mice; details: 2 h after tail vein injection
Experimental: In vivo studies. More specifically, biodistribution of DUPA-NIR conjugates 1-9 was monitored using fluorescence imaging of mice bearing human prostate tumor xenografts (22Rv1 cells). Male nude mice with 22Rv1 tumor xenografts were injected with DUPA-NIR dye conjugates via tail vein. The mice were euthanized 2 h after administration of the DUPA-NIR dye conjugate, selected tissues were harvested, and tissues were imaged with IVIS imager (ex=745 nm, em=ICG, exposure time=1 s).
The conjugates were also tested to show the ratio of tumor-to-tissue fluorescence. […] After imaging, fluorescence within a Region of interest (ROI) was measured for each tissue using In Vivo imaging software and tumor-to-tissue fluorescence was then calculated
(§2) in vivo studies. […] Male nude mice with 22Rv1 tumor xenografts were injected with DUPA-NIR dye conjugates via tail vein. The mice were euthanized 2 h after administration of the DUPA-NIR dye conjugate, selected tissues were harvested, and tissues were imaged with IVIS imager (ex=745 nm, em=ICG, exposure time=1 s). After imaging, fluorescence within a Region of interest (ROI) was measured for each tissue using In Vivo imaging software and tumor-to-tissue fluorescence was then calculated.
Male nude mice with 22Rv1 tumor xenografts were injected with DUPA-NIR dye conjugates via tail vein. The mice were euthanized 2 h after administration of the DUPA-NIR dye conjugate, selected tissues were harvested, and tissues were imaged with IVIS imager (ex=745 nm, em=ICG, exposure time=1 s). After imaging, fluorescence within a Region of interest (ROI) was measured for each tissue using In Vivo imaging software and tumor-to-tissue fluorescence was then calculated.
as §2, with “In vivo” for “in vivo”

[2] = test system: 22Rv1 human prostate tumor xenograft; assay: Time dependent whole-body fluorescence imaging of DUPA-NIR conjugates, IVIS imager; type: in vivo, mouse; details: for whole-body imaging: 6 or 20 nmol, imaged at different time intervals
Experimental: 22Rv1 human prostate tumor xenograft bearing mouse was injected with 20 nmol of 15 and imaged with IVIS imager (ex=745 nm, em=ICG, exposure time=1 s) at different time intervals.
22Rv1 human prostate tumor xenograft bearing mouse was injected with 20 nmol of 23 and imaged with IVIS imager (ex=745 nm, em=ICG, exposure time=1 s) at different time intervals.
22Rv1 human prostate tumor xenograft bearing mouse was injected with 20 nmol of 25 and imaged with IVIS imager (ex=745 nm, em=ICG, exposure time=1 s) at different time intervals
22Rv1 human prostate tumor xenograft bearing mouse was injected with 6 nmol of 35 and imaged with IVIS imager (ex=745 nm, em=ICG, exposure time=1 s) at different time intervals.
22Rv1 human prostate tumor xenograft bearing mouse was injected with 6 nmol of 36 and imaged with IVIS imager (ex=745 nm, em=ICG, exposure time=1 s) at different time intervals.
22Rv1 human prostate tumor xenograft bearing mouse was injected with 20 nmol of 39 and imaged with IVIS imager (ex=745 nm, em=ICG, exposure time=1 s) at different time intervals.
22Rv1 human prostate tumor xenograft bearing mouse was injected with 20 nmol of 40 and imaged with IVIS imager (ex=745 nm, em=ICG, exposure time=1 s) at different time intervals.
22Rv1 human prostate tumor xenograft bearing mouse was injected with 20 nmol of 41 and imaged with IVIS imager (ex=745 nm, em=ICG, exposure time=1 s) at different time intervals.
FIG. 25: Overlay of whole body or half body fluorescence image over white light images after adjusting the threshold. 22Rv1 human prostate tumor xenograft bearing mouse was injected with 20 nmol of 54 and imaged with IVIS imager (ex=745 nm, em=ICG, exposure time=1 s) at different time intervals.
22Rv1 human prostate tumor xenograft bearing mouse was injected with 20 nmol of 55 and imaged with IVIS imager (ex=745 nm, em=ICG, exposure time=1 s) at different time intervals.
22Rv1 human prostate tumor xenograft bearing mouse was injected with 20 nmol of 56 and imaged with IVIS imager (ex=745 nm, em=ICG, exposure time=1 s) at different time intervals.
22Rv1 human prostate tumor xenograft bearing mouse was injected with 20 nmol of 57 and imaged with IVIS imager (ex=745 nm, em=ICG, exposure time=1 s) at different time intervals
22Rv1 human prostate tumor xenograft bearing mouse was injected with 20 nmol of 58 and imaged with IVIS imager (ex=745 nm, em=ICG, exposure time=1 s) at different time intervals
22Rv1 human prostate tumor xenograft bearing mouse was injected with 20 nmol of 60 and imaged with IVIS imager (ex=745 nm, em=ICG, exposure time=1 s) at different time intervals.
in vivo studies. […] 22Rv1 human prostate tumor xenograft bearing mouse was injected with 20 nmol of 63 and imaged with IVIS imager (ex=745 nm, em=ICG, exposure time=1 s) at different time intervals.
22Rv1 human prostate tumor xenograft bearing mouse was injected with 6 nmol of 63 and imaged with IVIS imager (ex=745 nm, em=ICG, exposure time=1 s) at different time intervals.
22Rv1 human prostate tumor xenograft bearing mouse was injected with 20 nmol of 64 and imaged with IVIS imager (ex=745 nm, em=ICG, exposure time=1 s) at different time intervals.
22Rv1 human prostate tumor xenograft bearing mouse was injected with 6 nmol of 15 and imaged with IVIS imager (ex=745 nm, em=ICG, exposure time=1 s) at different time intervals.

[3] = Concentration dependent UV spectrometric study of higher order aggregates; type: physicochemical
Experimental: Possible OTL78-related hypersensitivity in human was next examined using basophil activation assay. Drug related hypersensitivity is mainly due to immune response caused by cross-linking of immunoglobulin E (IgE) expressed on mast cells and basophils (FIG. 47D) resulting in activation and subsequent degranulation to release vasoactive amines, prostaglandins, and cytokines (29). Since cross-linking of IgE can be due to aggregates, concentration dependent UV spectrometric studies were conducted to determine higher order aggregates of OTL78.

T1 sequence (Q04609 whole entry): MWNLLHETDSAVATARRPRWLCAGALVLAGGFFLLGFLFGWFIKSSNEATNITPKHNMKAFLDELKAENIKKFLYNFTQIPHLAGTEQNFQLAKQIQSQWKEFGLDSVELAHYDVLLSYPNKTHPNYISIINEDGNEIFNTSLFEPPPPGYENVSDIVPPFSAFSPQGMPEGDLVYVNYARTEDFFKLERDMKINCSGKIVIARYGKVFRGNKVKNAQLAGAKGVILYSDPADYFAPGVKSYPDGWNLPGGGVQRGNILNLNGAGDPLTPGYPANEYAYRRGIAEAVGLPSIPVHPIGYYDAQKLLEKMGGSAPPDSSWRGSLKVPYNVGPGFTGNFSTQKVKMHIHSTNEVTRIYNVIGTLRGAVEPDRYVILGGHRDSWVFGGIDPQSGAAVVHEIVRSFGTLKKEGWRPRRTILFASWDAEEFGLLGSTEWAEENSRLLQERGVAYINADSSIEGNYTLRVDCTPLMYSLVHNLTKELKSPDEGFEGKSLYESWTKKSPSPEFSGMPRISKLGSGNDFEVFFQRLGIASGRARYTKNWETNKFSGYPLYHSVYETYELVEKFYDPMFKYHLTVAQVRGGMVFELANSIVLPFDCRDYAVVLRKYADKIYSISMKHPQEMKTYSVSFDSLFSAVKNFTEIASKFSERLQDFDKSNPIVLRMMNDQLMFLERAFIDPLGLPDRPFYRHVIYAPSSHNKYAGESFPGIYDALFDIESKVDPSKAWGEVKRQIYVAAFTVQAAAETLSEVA

| Molecule | affinity for PSMA (in words) (PSMA) | tumor-to-background ratio (TBR), in words [1] | sites of accumulation in whole-body imaging ([2]; 6 nmol, time dependent) | whole-body imaging [2] | Kd (PSMA) | higher aggregates ([3]; 75 μM concentration in saline) | higher order aggregates (UV spectra), in words ([3]; 75 μM in saline) |
| --- | --- | --- | --- | --- | --- | --- | --- |
| CC1(C)C(/C=C/C2=C(Oc3ccc(C[C@H](NC(=O)[C@H](Cc4ccccc4)NC(=O)CCCCCCCNC(=O)CC[C@H](NC(=O)N[C@@H](CCC(=O)O)C(=O)O)C(=O)O)C(=O)O)cc3)C(=C/C=C3/N(CCCCS(=O)(=O)O)c4ccc(S(=O)(=O)O)cc4C3(C)C)/CCC2)=[N+](CCCCS(=O)(=O)[O-])c2ccc(S(=O)(=O)O)cc21 [Compound 15] | very high affinity | excellent | accumulated in PSMA-positive tumors and kidneys | very good whole-body imaging data within 2-4 hours | – | – | – |
| CC1(C)C(/C=C/C2=C(SC[C@H](NC(=O)[C@H](Cc3ccccc3)NC(=O)CCCCCCCNC(=O)CC[C@H](NC(=O)N[C@@H](CCC(=O)O)C(=O)O)C(=O)O)C(=O)O)C(=C/C=C3/N(CCCCS(=O)(=O)O)c4ccc(S(=O)(=O)O)cc4C3(C)C)/CCC2)=[N+](CCCCS(=O)(=O)[O-])c2ccc(S(=O)(=O)O)cc21 [Compound 25] | very high affinity | – | – | very good whole-body imaging data within 2-4 hours | 6.3 nM | – | – |
| CC1(C)C(/C=C/C2=C(Oc3ccc(C[C@H](NC(=O)[C@H](Cc4ccccc4)NC(=O)CCOCCOCCNC(=O)CC[C@H](NC(=O)N[C@@H](CCC(=O)O)C(=O)O)C(=O)O)C(=O)O)cc3)C(=C/C=C3/N(CCCCS(=O)(=O)O)c4ccc(S(=O)(=O)O)cc4C3(C)C)/CCC2)=[N+](CCCCS(=O)(=O)[O-])c2ccc(S(=O)(=O)O)cc21 [Compound 35] | – | excellent | – | very good whole-body imaging data within 2-4 hours | 23.9 nM | – | – |
| CC1(C)C(/C=C/C2=C(Oc3ccc(C[C@H](NC(=O)[C@](C)(Cc4ccc(F)cc4)NC(=O)CCOCCOCCNC(=O)CC[C@H](NC(=O)N[C@@H](CCC(=O)O)C(=O)O)C(=O)O)C(=O)O)cc3)C(=C/C=C3/N(CCCCS(=O)(=O)O)c4ccc(S(=O)(=O)O)cc4C3(C)C)/CCC2)=[N+](CCCCS(=O)(=O)[O-])c2ccc(S(=O)(=O)O)cc21 [Compound 36] | very high affinity | – | – | very good whole-body imaging data within 2-4 hours | – | – | – |
| CC1(C)C(/C=C/C2=C(Oc3ccc(C[C@H](NC(=O)[C@H](CCCNC(=N)N)NC(=O)[C@H](Cc4ccccc4)NC(=O)CCCCCCCNC(=O)CC[C@H](NC(=O)N[C@@H](CCC(=O)O)C(=O)O)C(=O)O)C(=O)O)cc3)C(=C/C=C3/N(CCCCS(=O)(=O)O)c4ccc(S(=O)(=O)O)cc4C3(C)C)/CCC2)=[N+](CCCCS(=O)(=O)[O-])c2ccc(S(=O)(=O)O)cc21 [Compound 41] | very high affinity | – | – | very good whole-body imaging | – | – | – |
| OTL38 [reference compound] | – | – | – | – | – | > 50% | concentration dependent aggregation peak |
